Source: patent US20110206608A1, “Pharmaceutical Composition Of A Radioiodinated Benzamide Derivative And Methods Of Making Same” (priority 2008, published 2011)
“Also recorded” adds a separate entry of the source. Where two headings read alike, the source gives them in different places.

Assays:
[1] = Tumor uptake and retention of ^123I-Compound B in B16 melanoma bearing mice; format: in vivo; details: mouse
Excerpt: Tumor uptake and retention of ^123I-Compound B in B16 melanoma bearing mice (% ID/g) was as shown in Table B. Those studies were done using the method disclosed in Eisenhut et al., J. Med. Chem. 2000, 43(21), 3913-22.

[2] = tested on: B16F10 tumor; experiment: Organ distribution and tumor accumulation in B16F10 tumor bearing mice; format: in vivo; details: for biodistribution (distribution properties): B16F10 tumor bearing mice, 1 hour and 24 hour after intravenous administration, FIG. 4
Method: FIG. 3 illustrates the biodistribution of ^131I-Cmpd B and ^131I-Cmpd BD in B16F10 bearing mice.
FIG. 4 illustrates the biodistribution of ^131I-Cmpd A, ^131I-Cmpd B, ^131I-Cmpd C, and ^131I-Cmpd D in B16F10 tumor bearing mice.
The organ distribution and tumor accumulation experiments were performed in B16F10 tumor bearing mice. At times indicated (1 hour and 24 hour) after intravenous administration of the substances, the animals were sacrificed, organs and tumors were removed, optionally dabbed dry, weighed, and measured for radioactive content in a calibrator with the corresponding isotope standard. The results are depicted as % of the injected dose/gm of tissue. FIG. 4 illustrates the biodistribution of ^131I-Cmpd A, ^131I-Cmpd B, ^131I-Cmpd C, and ^131I-Cmpd D in B16F10 tumor bearing mice.

[3] = tested on: melanin; experiment: melanin targeting / binding capacity in vitro and in vivo
[4] = Stability in ^131I-labeling, Tl(TFA)3/TFA iodination (Example 6-A); format: physicochemical; details: for chemical stability during the radioiodination: Tl(TFA)3/TFA iodination; for Identified impurity (%) / RCP (%): after ^131I-labeling with 2.5 mCi Na^131I
Excerpt: Purpose: ^131I-labeling yield and stability were compared side-by-side for (Compound C, Compound D and Compound A) together with Compound B (with or without addition of Dioxolane).
Results: The T1(TFA)3/TFA iodination method could be used for ^131I-Compound C, ^131I-Compound D and Compound A. Different from Compound B, there was almost no degraded impurities occurred during the labeling (^131I-Compound C, ^131I-Compound D or Compound A) at a radioactivity dose level of 2.5 mCi.

[5] = Stability post labelling in radiolysis protecting buffer, 3 days storage at RT (Example 6-B); format: physicochemical; details: for Free ^131I (%) / Identified impurity (%) / RCP (%): RT, radiolysis protecting buffer, ~11 mCi/mL
[6] = Solubility at 3 mg/mL, dissolved in acetic acid, then PEG400/ethanol, then matrix, visual inspection (Example 7-B); format: physicochemical; details: 3% acetic acid, 30% PEG400, 2% ethanol, 6% ascorbic acid, 3% sodium gentisate, pH=3.6, RT
Method: The compounds were dissolved in acetic acid first, and then diluted with PEG400/ethanol; the solution was finally diluted in matrix into a final concentration of 3 mg/mL. The components of the matrix included 3% sodium gentisate (w/v) and 6% ascorbic acid (w/v) (pH=3.6). The prepared sample solution was kept at RT and examined by visual inspection.

[7] = Solubility over one week storage at RT, visual inspection and HPLC (Example 7-C); format: physicochemical; details: for HPLC measured conc. at 7 days: 3 mg/mL prepared, with 3% acetic acid; for aqueous solubility: comparison among the tested compounds
Method: Compound C and Compound D were dissolved in acetic acid first, and then with PEG400/ethanol; the solution was finally diluted in matrix into a final concentration of 3 mg/mL. The matrix included 3% sodium gentisate (w/v) and 6% ascorbic acid (w/v) (pH=3.6). The prepared sample solution was kept at RT and examined by visual inspection. The concentration of the tested compounds in the solution or in the supernatant was analyzed by HPLC.

[8] = tested on: B16 melanoma; details: B16 melanoma bearing C57BL/J1 mouse, cited from earlier work
[9] = tested on: SK-MEL-3 tumor; experiment: Effect on SK-MEL-3 tumor growth in mice; format: in vivo; details: 68 mCi/m^2
Excerpt: FIG. 6 illustrates the effect of ^131I-Cmpd A (68 mCi/m^2) on SK-MEL-3 tumor growth at various dose levels.
FIG. 7 illustrates the effect of ^131I-Cmpd A (68 mCi/m^2) on SK-MEL-3 tumor growth in mice at various dose levels. […] (Please note that animals were euthanized if tumor volume was>1500 mm^3).
Effects of ^131I-Cmpd A (68 mCi/m^2) on SK-MEL-3 tumor growth were investigated in mice. Saline and dacarbazine were used as references for the study. In this experiment, different batches of mice were administered a dose of 68 mCi/m^2 of ^131I-Cmpd A once a day, twice a day, and thrice a day. The treatment lasted for 125 days. The mice were euthanized if tumor volume was greater than 1500 mm^3. The treated mice were closely monitored and sacrificed if any signs of approaching death were shown. Tumor change (length and width of tumor) was monitored every few days.

[10] = protected with 10 μL of Dioxolane

SMILES: CCN(CC)CCNC(=O)c1cc(I)c(NC(=O)c2ccc3c(c2)OCO3)cc1OC [Compound B, benzo[1,3]dioxole-5-carboxylic acid [4-(2-diethylamino-ethylcarbamoyl)-2-iodo-5-methoxyphenyl]amide]
- tissue uptake at 1 h ([1]; 1 h): 14.8 %ID/g
- tissue uptake at 5 h ([1]; 5 h): 22.7 %ID/g
- tissue uptake at 48 h ([1]; 48 h): 16.6 %ID/g
- biodistribution (distribution properties) [2]: desirable distribution properties
- melanin targeting capacity [3]: found to have melanin targeting capacity both in vitro and in vivo
- chemical stability during the radioiodination [4]: poor chemical stability
- Identified impurity (%) ([4]; Tl(TFA)3/TFA): 5.5%
- RCP (%) ([4]; Tl(TFA)3/TFA): 90.3%
- Identified impurity (%) [4, 10]: 2.3%
- RCP (%) [4, 10]: 94.0%
- Free ^131I (%) ([5]; 0 day): 0.1%
- Identified impurity (%) ([5]; 0 day): 10.3%
- RCP (%) ([5]; 0 day): 89.5%
- Free ^131I (%) ([5]; 3 day): 2.4%
- Identified impurity (%) ([5]; 3 day): 8.8%
- RCP (%) ([5]; 3 day): 88.6%
- stability during the 3 days storage at RT post labeling ([5]; diluted in radiolysis protecting solution, Compound B vs Compound A): no significant difference in stability

SMILES: CCN(CC)CCNC(=O)c1cc(I)c(NC(=O)c2ccc(Cl)cc2)cc1OC [Compound C, 4-(4-chlorobenzoylamino)-N-(2-(diethylamino)ethyl)-5-iodo-2-methoxybenzamide]
- biodistribution (distribution properties) [2]: desirable distribution properties
- melanin targeting capacity [3]: found to have melanin targeting capacity both in vitro and in vivo
- chemical stability during the radioiodination [4]: stable
- Identified impurity (%) ([4]; Tl(TFA)3/TFA): 0%
- RCP (%) ([4]; Tl(TFA)3/TFA): 97.1%
- Solution inspection [6]: Clear solution
- HPLC measured conc. at 7 days ([7]; RT, concentration in the supernatant): 0.23 mg/mL
- Solution inspection at 7 days ([7]; 3 mg/mL, 3% acetic acid, 30% PEG400, 2% ethanol, 6% ascorbic acid, 3% sodium gentisate, RT): Precipitation**
- aqueous solubility [7]: poor aqueous solubility; also recorded: Compound A>Compound D>>Compound C

SMILES: CCN(CC)CCNC(=O)c1cc(I)c(NC(=O)c2ccc(OC)cc2)cc1OC [Compound D, N-(2-diethylamino-ethyl)-5-iodo-2-methoxy-4-(4-methyoxybenzoylamino)benzamide]
- biodistribution (distribution properties) [2]: desirable distribution properties
- melanin targeting capacity [3]: found to have melanin targeting capacity both in vitro and in vivo
- chemical stability during the radioiodination [4]: stable
- Identified impurity (%) ([4]; Tl(TFA)3/TFA): 0%
- RCP (%) ([4]; Tl(TFA)3/TFA): ~100%
- Solution inspection [6]: Clear solution
- HPLC measured conc. at 7 days ([7]; RT): 2.89 mg/mL
- aqueous solubility [7]: poor aqueous solubility; also recorded: Compound A>Compound D>>Compound C

SMILES: CCN(CC)CCNC(=O)c1ccc([123I])cc1 [^123I-BZA]
- tumor wash-out (% ID/g) ([8]; 1 h): 6.8 % ID/g
- tumor wash-out (% ID/g) ([8]; 24 h): 0.8 % ID/g
- tumor wash-out (% ID/g) ([8]; 72 h): 0.3 % ID/g

SMILES: CCN(CC)CCNC(=O)c1cc([131I])c(NC(=O)c2ccc(F)cc2)cc1OC [Compound A, N-(2-(diethylamino)ethyl)-4-(4-fluoro-benzoylamino)-5-iodo-2-methoxybenzamide]
- biodistribution (distribution properties) [2]: desirable distribution properties
- tumor uptake and retention ([2]; tumor bearing animal models): significant high tumor uptake and prolonged retention
- tumor growth (tumor change) ([9]; SK-MEL-3 tumor in mice, FIG. 6): reducing the tumor growth
- survival of the mice ([9]; SK-MEL-3 tumor in mice, FIG. 7): increasing survival of the mice
- response to treatment ([9]; human melanoma mouse xenograft model): complete response (CR) has been observed
- chemical stability during the radioiodination [4]: stable
